Assay type in all cases: in vivo, mouse
Data set [1] deals with spinal cord of naïve WT mice. The data set is described as follows: Spinal cord immunohistochemistry. To be noted: i.t. daily for 7 d, H-20 30 nmol or morphine 2 nmol.
In data set [2] the test system is mice. Kind of data set: Antinociceptive tolerance in CFA model. As to conditions: i.t. 7 consecutive days, H-20 30 nmol or morphine 20 nmol.
The subject of data set [3] is mice. Kind of data set: Conditioned place preference. To be noted: i.t. H-20 30 nmol or morphine 2 nmol.
The test system of data set [4] is mice. Kind of data set: Open field test. As to conditions: i.t., 30 min before test.
The test system of data set [5] is mice. The data set is described as follows: Rotarod test. To be noted: i.t. H-20 30 nmol or morphine 2 nmol, 15 to 120 min. Background: Falling from the rotarod earlier than controls is read as motor impairment.
The next data set relates to naïve WT mice. The data set is described as follows: Acute itch behaviors. As to conditions: i.t., counted within 30 min, morphine 2 nmol.

Structures are written as SMILES. Structures can show the parent of a compound that is named as a salt.

Consider `CN1CC[C@]23c4c5ccc(O)c4O[C@H]2[C@@H](O)C=C[C@H]3[C@H]1C5` [morphine, Morphine hydrochloride], for which, in data set [1], the “microglial activation in spinal cord” value is given as “induced significant microglial activation” and the “number of c-Fos–positive neurons in spinal cord” value is “markedly increased the number of c-Fos–positive neurons”. In addition, the “antiallodynic effect after repeated injection (tolerance)” value in the data set on mice [2] is “significantly decreased on test day 7”. Further, the CPP response entry in the data set on mice [3] is recorded as “significant increase in the drug-treated chamber”. Also, the “time in center area and frequency of entry into central zone (anxiety)” value in the data set on mice [4] was “No intergroup differences were observed”. Also, in the data set on mice [5], the time on rotarod entry is on record as “did not change the length of time”. For the same compound, the itch-related scratching behaviors result with naïve WT mice is on record as “significantly evoked itch-related scratching behaviors”.

Source of the values: article PMC9351488 (Proceedings of the National Academy of Sciences of the …, 2022).
